Source: patent US20230009323A1, “COMPOUNDS AND METHODS FOR THE TREATMENT OF CRYPTOSPORIDIOSIS” (The Broad Institute, Inc., priority 2019, published 2023)
Like-named read-outs stand apart in the source and are kept apart here.

Assays:
P. falciparum = P. falciparum blood-stage growth inhibition; assay type: cell-based; conditions: Plasmodium falciparum
Protocol: Pf EC50's were obtained using the procedure disclosed in Bessoff, K. et al. Antimicrobial agents and chemotherapy 58, 2731-2739, doi:10.1128/AAC.02641-13 (2014), hereby incorporated by reference in its entirety. Reduction in C. parvum oocysts/mg feces was determined in the C. parvum immunocompromised mouse model as described in the Examples.

[1] = test system: C. parvum Iowa isolate (Bunch Grass Farm); assay: C. parvum Iowa isolate (Bunch Grass Farm) growth in HCT-8 cells, high-content microscopy; assay type: cell-based; conditions: Cryptosporidium parvum
Protocol: A high-content microscopy assay was used to measure activity of compounds against C. parvum grown in the human adenocarcinoma cell line HCT-8 (ATCC) as disclosed in Bessoff, K., et al., Antimicrobial agents and chemotherapy 57, 1804-1814, doi:10.1128/AAC.02460-12 (2013), hereby incorporated by reference in its entirety. HCT-8 cells were cultured in 384-well clear-bottomed plates in 50 μL per well of RPMI 1640 medium ([…]), 120 U·mL^−1 penicillin, and 120 μg·mL^−1 streptomycin (ATCC) at 37° C. under 5% CO2. For compound screening and follow-up SAR studies, confluent cell monolayers were infected with C. parvum Iowa isolate oocysts [Bunch Grass Farm (Deary, Id.); ˜5,500 oocysts per well] after inducing excystation by treatment for 10 min at 37° C. with 10 mM HCl and then 10 min at 16° C. in 2 mM sodium taurocholate. Compounds were added at the indicated concentrations 3 h after monolayer infection. After incubation (37° C., 5% CO2) for 48 h, the cells were washed three times with PBS containing 111 mM D-Galactose and fixed by adding an equal volume of 8% formaldehyde in PBS. Cell monolayers were then prepared for microscopy by permeabilizing with 0.1% Triton X-100, washing three times with PBS with 0.1% Tween 20, blocking with 4% bovine serum albumin (BSA) in PBS for 2 h at 37° C. or 4° C. overnight, and staining parasitophorous vacuoles with 1.33 μg·mL^−1 of fluorescein-labeled Vicia villosa lectin (Vector Laboratories) diluted in 1% BSA in PBS with 0.1% Tween 20 for 1 h at 37° C. DNA was then stained by adding Hoechst 33258 (AnaSpec) at a final concentration of 0.09 mM diluted in water, followed by washing five times with PBS containing 0.1% Tween 20. Images were acquired using a Nikon Eclipse TE2000 epifluorescence microscope with an automated stage that was programmed using NIS-Elements Advanced Research software (Nikon) to focus on the center of each well and take a 3×3 composite image using an EXi Blue fluorescence microscopy camera (QImaging) with a 20× objective (numerical aperture 0.45). Nucleus and parasite images were exported separately as tif files and analyzed using NIH ImageJ and previously reported macros, and data analysis and graphing were done using GraphPad Prism software, version 6.01. […]

C. parvum [2] = assay: NOD SCID gamma mouse model of established cryptosporidiosis, fecal oocyst shedding by qPCR; assay type: in vivo, NOD SCID gamma mice; conditions: oral, 50 mg/kg every 24 h for 4 days
Text: FIG. 4A is a schematic of NOD SCID gamma (NSG) mouse model of established intestinal cryptosporidiosis. Intestinal C. parvum infection was established by oral gavage of ˜10^5 oocysts either 7 days (FIGS. 4B and C) or 14 days (FIG. 4D) prior to oral treatment with bicyclic azetidines, vehicle, or paromomycin (positive control). All data are the mean and SEM (n=4 mice per experimental group) of parasite shedding per mg of feces measured by qPCR with results for individual mice shown as superimposed data points. Data points for which no parasite DNA was detected are shown at the qPCR assay limit of detection (0.1 oocysts per mg feces).
NOD scid gamma mice (NOD.Cg-Prkdcscid Il2rgtmlWjl/Szj; Jackson Laboratory, Bar Harbor, Me.) (NSG) were used to model established Cryptosporidium infection. All NSG mouse studies were performed in compliance with animal care guidelines and with approval by the University of Vermont Institutional Animal Care and Use Committee. Mice were acquired at three to four weeks of age, and acclimatized for one week prior to infection by oral gavage of ˜10^5 C. parvum Iowa isolate (Bunch Grass Farms) oocysts. They were then treated at the specified times and dosages with each compound dissolved in 0.5% hydroxypropylmethyl cellulose, 0.5% Tween 80 (v/v) plus 5% DMSO.
This cryptosporidiosis infection model used 3-4 week old, freshly weaned, NOD SCID gamma mice orally infected with C. parvum oocysts (˜1×10^5). The infection was monitored by qPCR of feces with primers specific for C. parvum and data are shown as number of oocysts milligram^−1 of feces. Six days following infection and upon confirmation of parasite shedding by qPCR, the three compounds, negative and positive control were orally administered at 50 mg·kg^−1 (body weight) every 24 h for 4 days. (FIGS. 4A-D). […] We then performed a dose-ranging study with Compound 11 using the same immunocompromised mouse model and dosing regimens of 5, 20 and 40 mg·kg^−1 every 24 h for 4 days or 10 mg·kg^−1 every 24 h for 7 days. Mice were monitored for an additional 14 days for relapse of infection.

C. hominis (TU 502) = assay: C. hominis TU502 growth in HCT-8 cells; assay type: cell-based; conditions: Cryptosporidium hominis
Protocol: (§1) Studies using farm C. parvum isolates and the C. hominis TU502 isolate were performed by Calibr at Scripps Research (La Jolla, Calif.) in 1,536-well plates using a slightly modified immunofluorescence assay as described in Love, M. S. et al. PLoS neglected tropical diseases 11, e0005373, doi:10.1371/journal.pntd.0005373 (2017), hereby incorporated by reference in its entirety. HCT-8 cell culture medium was replaced with RPMI 1640 medium supplemented with 2% heat-inactivated horse serum, 100 U·mL^−1 penicillin, and […] 24 h prior to infection with the indicated isolate. The C. parvum Iowa isolate was included as a reference in all experiments. Imaging was performed using a Cellnsight CX5 High Content screening platform (Thermo Scientific) with a 10× objective and acquisition of one microscopic field per well. Images were processed using HCS Studio Scan software, and the selected-object count (HCT-8 cells) and spot count (parasitophorous vacuoles) were analyzed in Genedata Screener (version 13.0; Standard). Dose-response curves and EC50 values were calculated using the Smart Fit function of Genedata Analyzer.

HepG2 cytotoxicity = assay type: cell-based; conditions: human, HepG2 cells
HEK293T cytotoxicity = assay type: cell-based; conditions: human, HEK293T cells
[3] = test system: C. parvum (Iowa) Sterling; assay: C. parvum (Iowa) Sterling growth in HCT-8 cells; assay type: cell-based; conditions: Cryptosporidium parvum
Protocol: as §1

[4] = test system: C. parvum (Field Isolate) WSU; assay: C. parvum field isolate (WSU) growth in HCT-8 cells; assay type: cell-based; conditions: Cryptosporidium parvum
Protocol: as §1

HepG2 cells = assay: HepG2 cytotoxicity; assay type: cell-based; conditions: C. parvum Iowa isolate (1% FBS) EC50 compared to HepG2 CC50
[5] = test system: C. parvum mutant transgenic PheRS (mut482V); assay: microbe, parasite or virus in culture; assay type: cell-based, Cryptosporidium parvum
Protocol: (§2) The in vitro drug susceptibility assay using transgenic parasites expressing Nluc was performed as described in Vinyak et al. Briefly, host intestinal epithelial adenocarcinoma (HCT-8) cells grown in 96-well plates were infected with purified transgenic Nluc-expressing oocysts (1,000 oocysts per well) and incubated with different concentrations of Compound 11 for 48 hours. Culture supernatant was discarded from the wells after 48 hours, and 200 μl of NanoGlo lysis buffer containing 1:50 of NanoGlo substrate (Promega) was added to the wells. Lysates were transferred to white 96-well plates and luminescence was measured on a Glomax luminescence reader (Promega). EC50 values were calculated in GraphPad Prism software v7.
(§3) Oocysts from the mutant (mut482V) and wild type (wtL482) transgenic lines were purified as well as the parent strain (Bunchgrass) used to generate the transgenics. Sporozoites were excised from these oocysts and used to infect 96 well format HCT-8 cultures to perform in vitro drug susceptibility assays. Cultures were incubated for 48 hours in the presence of varying concentrations of Compound 11 and parasite growth was measured by establishing whole well luciferase activity to calculate EC50 values for each strain.

[6] = test system: C. parvum WT transgenic PheRS (wtL482); assay: In vitro drug susceptibility in HCT-8 cells, luminescence, wild type transgenic; assay type: cell-based; conditions: Cryptosporidium parvum, HCT-8, 48 h, read-out: EC50, wild type transgenic
Protocol: as §2, §3

C. parvum [7] = conditions: general statement or literature report; cited from earlier work
[8] = serum not given, read-out: C. parvum EC50
[9] = read-out: C. parvum (Iowa) (1% FBS) BGF EC50
[10] = read-out: C. parvum (Iowa) (10% FBS) BGF EC50

SMILES | EC50 [1, 8] | reduction in oocyst shedding (oocysts per mg feces) (C. parvum [2]) | EC50 (C. hominis (TU 502)) | CC50 (HepG2 cytotoxicity) | CC50 (HEK293T cytotoxicity) | EC50 [3] | EC50 [4] | EC50 [1, 9] | EC50 [1, 10] | outcome of treatment in C. parvum infected NSG mice (C. parvum [7]) | other results
COC[C@@]12CN(C(=O)Nc3ccc(OC)cc3)CCCCN1[C@H](CO)[C@@H]2c1ccc(C#Cc2ccccc2)cc1 [Compound 2, (8R,9S,10S)-10-(hydroxymethyl)-8-(methoxymethyl)-N-(4-methoxyphenyl)-9-(4-(phenylethynyl)phenyl)-1,6-diazabicyclo[6.2.0]decane-6-carboxamide] | 580 nM |  |  |  |  |  |  |  |  |  | EC50 (P. falciparum): 627 nM
COc1ccc(NC(=O)N2CCCCN3[C@H](CO)[C@H](c4ccc(C#Cc5ccccc5)cc4)[C@@H]3C2)cc1 [Compound 9, (8R,9R,10S)-10-(hydroxymethyl)-N-(4-methoxyphenyl)-9-(4-(phenylethynyl)phenyl)-1,6-diazabicyclo[6.2.0]decane-6-carboxamide] | < 73 nM | significant reduction in oocyst shedding |  |  |  |  |  |  |  |  | 
COc1ccc(NC(=O)N2CCCCN3[C@H](COCCC(=O)O)[C@H](c4ccc(C#Cc5ccccc5)cc4)[C@@H]3C2)cc1 [Compound 10, 3-(((8R,9R,10S)-6-((4-methoxyphenyl)carbamoyl)-9-(4-(phenylethynyl)phenyl)-1,6-diazabicyclo[6.2.0]decan-10-yl)methoxy)propanoic acid] | < 73 nM | significant reduction in oocyst shedding | 5 nM | > 40000 nM | > 40000 nM | 2 nM | 9 nM | 4 nM | 15 nM |  | 
COc1ccc(NC(=O)N2CCCCN3[C@H](CN(C)C(C)=O)[C@H](c4ccc(C#Cc5ccccc5)cc4)[C@@H]3C2)cc1 [Compound 16, (8R,9S,10S)-N-(4-methoxyphenyl)-10-((N-methylacetamido)methyl)-9-(4-(phenylethynyl)phenyl)-1,6-diazabicyclo[6.2.0]decane-6-carboxamide] |  | greatest reduction in oocysts | 3 nM | 25000 nM | 27000 nM | 0.6 nM | 6 nM | 2 nM | 8 nM |  | selectivity index (HepG2 cells): > 10,000
COc1ccc(NC(=O)N2CCCCN3[C@H](CN(C)S(C)(=O)=O)[C@H](c4ccc(C#Cc5ccccc5)cc4)[C@@H]3C2)cc1 [Compound 17, (8R,9R,10S)-N-(4-methoxyphenyl)-10-((N-methylmethylsulfonamido)methyl)-9-(4-(phenylethynyl)phenyl)-1,6-diazabicyclo[6.2.0]decane-6-carboxamide] |  | greatest reduction in oocysts | 4 nM | > 40000 nM | > 40000 nM | 5 nM | 6 nM | 6 nM | 7 nM |  | 
COc1ccc(NC(=O)N2C[C@@H](O)[C@@H](O)CN3[C@H](CS(C)(=O)=O)[C@H](c4ccc(C#Cc5ccccc5)cc4)[C@@H]3C2)cc1 [Compound 18, (3S,4R,8R,9R,10S)-3,4-dihydroxy-N-(4-methoxyphenyl)-10-((methylsulfonyl)methyl)-9-(4-(phenylethynyl)phenyl)-1,6-diazabicyclo[6.2.0]decane-6-carboxamide] |  |  | 2 nM | 8000 nM | 6000 nM | < 0.4 nM | < 0.4 nM | < 0.4 nM |  |  | 
COc1ccc(NC(=O)N2CCCCN3C[C@H](c4ccc(C#Cc5ccccc5)cc4)[C@@H]3C2)cc1 [Compound 19, (8R,9S)-N-(4-methoxyphenyl)-9-(4-(phenylethynyl)phenyl)-1,6-diazabicyclo[6.2.0]decane-6-carboxamide] |  |  | 55 nM | 10000 nM | 25000 nM | 31 nM | 96 nM | 36 nM | 62 nM |  | fold shift in EC50, mutant transgenic vs wild type transgenic [5]: 9 fold; EC50 ([5]; Cryptosporidium parvum, HCT-8, 48 h, read-out: EC50, mutant transgenic): 372 nM; EC50 [6]: 40.8 nM
O=C(Nc1ccc(Cl)cc1)N1CCN(c2ccc3nncn3n2)CC1 [MMV665917] |  |  |  |  |  |  |  |  |  | curative | 
CC(C)/N=c1\cc2n(-c3ccc(Cl)cc3)c3ccccc3nc-2cc1Nc1ccc(Cl)cc1 [clofazimine] |  |  |  |  |  |  |  |  |  | show no improvement at all | 
NC[C@@H]1O[C@H](O[C@H]2[C@@H](O)[C@H](O[C@@H]3[C@@H](O)[C@H](N)C[C@H](N)[C@H]3O[C@H]3O[C@H](CO)[C@@H](O)[C@H](O)[C@H]3N)O[C@@H]2CO)[C@H](N)[C@@H](O)[C@@H]1O [paromomycin] |  |  |  |  |  |  |  |  |  | quickly relapse | 
